Tests used:
[1] = target: S1P3 (Homo sapiens (Human), UniProt Q99500); test: 35S-GTPγS binding assay, S1P3 membranes; format: biochemical; details: membranes from CHO cells expressing S1P3; read-out: S1P3 GTPyS EC50
Protocol: (§1) Membranes were prepared from CHO cells expressing S1P1 or S1P3 for use in ligand and […] binding studies. Cells were suspended in 50 mM TRIS, pH 7.4, 2 mM EDTA, 250 mM Sucrose (buffer A) and 1× Complete protease inhibitor cocktail (Roche), and disrupted at 4° C. by nitrogen decompression using a cell disruption bomb (Parr Instrument). Following centrifugation at 1000 RPM for 10 min at 4° C., the supernatant was suspended in buffer A and centrifuged again at 19000 RPM for 60 min at 4° C. The pellet was then suspended in 10 mM HEPES, pH 7.4, 1 mM EDTA, 250 mM Sucrose (Buffer B), and 1× Complete EDTA-free protease inhibitor cocktail and homogenized using a potter. Membranes were flash frozen in liquid nitrogen and stored at −80° C. [33P]sphingosine 1-phosphate (3000 Ci/mmol; American Radiolabeled Chemicals, Inc.) was added to test compounds in DMSO. Membranes and WGA SPA beads (GE Healthcare) were added to give a final volume of 100 μl in 96-well plates with assay concentrations of 25 μM or 10 μM [33P]sphingosine 1-phosphate (respectively for S1P1 or S1P3), 50 mM HEPES, pH 7.5, 5 mM MgCl2, 100 mM NaCl, 0.4% fatty acid-free BSA, 1-5 μg/well of proteins and 100 μg/well of WGA SPA beads. Binding was performed for 60 min at room temperature on a shaker and bound radioactivity was measured on a PerkinElmer 1450 MicroBeta counter. Specific binding was calculated by subtracting remaining radioactivity in the presence of 1000-fold excess of unlabeled S1P. Binding data were analyzed using the GraphPad Prism program.
Measurements of ^35S-GTPγS Binding: Membranes (1 to 10 μg protein) prepared as described above, were incubated in 96-well Scintiplates (PerkinElmer) with test compounds diluted in DMSO, in 180 μl of 20 mM HEPES, pH 7.4, 10 mM MgCl2, 2 μg/well Saponin, 0.2% fatty acid free BSA (Assay buffer), 140 mM NaCl and 1.7 μM GDP. The assay was initiated with the addition of 20 μl of 1.5 nM [35S]-GTPγS (1100 Ci/mmol; GE Healthcare) in assay buffer. After 60 min incubation at 30° C. on a shaker, plates were centrifuged for 10 min at 2000 RPM. Supernatant was discarded and membrane bound radioactivity was measured on a PerkinElmer 1450 MicroBeta counter. Triplicate samples were averaged and expressed as % response relative to SIP activation in absence of compound (n=2).

[2] = target: S1P1 (Homo sapiens (Human), UniProt P21453); test: 35S-GTPγS binding assay, S1P1 membranes; format: biochemical; details: membranes from CHO cells expressing S1P1; read-out: S1P1 GTPyS EC50
S1P1, sequence (P21453 whole entry, species assumed): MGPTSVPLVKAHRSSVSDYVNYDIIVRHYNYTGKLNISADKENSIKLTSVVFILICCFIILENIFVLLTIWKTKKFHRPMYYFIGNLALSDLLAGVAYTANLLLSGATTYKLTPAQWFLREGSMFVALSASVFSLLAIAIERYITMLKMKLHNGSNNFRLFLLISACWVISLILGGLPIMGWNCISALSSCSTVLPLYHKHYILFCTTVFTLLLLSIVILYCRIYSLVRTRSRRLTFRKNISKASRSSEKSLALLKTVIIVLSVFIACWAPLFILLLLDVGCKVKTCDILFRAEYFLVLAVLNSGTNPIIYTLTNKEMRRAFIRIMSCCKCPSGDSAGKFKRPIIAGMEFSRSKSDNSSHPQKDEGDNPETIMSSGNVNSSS
Protocol: as §1, with “Membranes and WGA SPA beads (GE Healthcare) were added to give a final volume of 100 μl in 96-well plates with assay concentrations of 25 μM or 10 μM [33P]sphingosine 1-phosphate (respectively for S1P1 or S1P3), 50 mM HEPES, pH 7.5, 5 mM MgCl2, 100 mM NaCl, 0.4% fatty acid-free BSA, 1-5 μg/well of proteins and 100 μg/well of WGA SPA beads.” left out
The assay was initiated with the addition of 20 μl of 1.5 nM [35S]-GTPγS (1100 Ci/mmol; GE Healthcare) in assay buffer. After 60 min incubation at 30° C. on a shaker, plates were centrifuged for 10 min at 2000 RPM. Supernatant was discarded and membrane bound radioactivity was measured on a PerkinElmer 1450 MicroBeta counter. Triplicate samples were averaged and expressed as % response relative to SIP activation in absence of compound (n=2).

S1P3, sequence (Q99500 whole entry, species assumed): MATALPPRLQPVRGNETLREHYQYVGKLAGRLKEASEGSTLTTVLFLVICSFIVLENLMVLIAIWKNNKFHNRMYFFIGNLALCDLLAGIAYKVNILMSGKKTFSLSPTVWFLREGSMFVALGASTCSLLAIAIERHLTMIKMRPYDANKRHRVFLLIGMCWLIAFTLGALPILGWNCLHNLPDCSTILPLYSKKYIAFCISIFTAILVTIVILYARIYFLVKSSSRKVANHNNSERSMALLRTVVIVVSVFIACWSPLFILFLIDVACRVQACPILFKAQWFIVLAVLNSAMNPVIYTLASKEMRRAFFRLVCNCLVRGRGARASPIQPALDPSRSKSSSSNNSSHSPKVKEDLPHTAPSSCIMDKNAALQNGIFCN

O=C(O)CCCS(=O)(=O)c1ccc(NC(=O)c2cc(N(CC3CC3)C3CCCCC3)ncn2)cc1 [Example 1-132]
EC50 [1]: 85 nM
EC50 [2]: 40 nM

Cc1cc(S(=O)(=O)NCC(=O)O)ccc1NC(=O)c1cc(N(CC2CC2)C2CCCCC2)ncn1 [Example 1-61]
EC50 [1]: 259 nM
EC50 [2]: 12 nM

CN(c1cc(C(=O)Nc2ccc3c(c2)CC(=O)N3)ncn1)C1CCCCC1 [Example 1-41]
EC50 [1]: 32000 nM
EC50 [2]: 1780 nM

COCCNS(=O)(=O)c1ccc(NC(=O)c2cc(N(CC3CC3)C3CCCCC3)ncn2)c(C)c1 [Example 1-107]
EC50 [1]: 3300 nM
EC50 [2]: 19 nM

CN(c1cc(C(=O)Nc2ccc3[nH]ncc3c2)ncn1)C1CCCCC1 [Example 1-35]
EC50 [1]: > 20000 nM
EC50 [2]: 418 nM
